Assays:
Aurora kinase A = target: T1, Aurora kinase A (Homo sapiens, UniProt O14965); assay: Aurora Kinase Assay
T1 sequence (O14965 whole entry): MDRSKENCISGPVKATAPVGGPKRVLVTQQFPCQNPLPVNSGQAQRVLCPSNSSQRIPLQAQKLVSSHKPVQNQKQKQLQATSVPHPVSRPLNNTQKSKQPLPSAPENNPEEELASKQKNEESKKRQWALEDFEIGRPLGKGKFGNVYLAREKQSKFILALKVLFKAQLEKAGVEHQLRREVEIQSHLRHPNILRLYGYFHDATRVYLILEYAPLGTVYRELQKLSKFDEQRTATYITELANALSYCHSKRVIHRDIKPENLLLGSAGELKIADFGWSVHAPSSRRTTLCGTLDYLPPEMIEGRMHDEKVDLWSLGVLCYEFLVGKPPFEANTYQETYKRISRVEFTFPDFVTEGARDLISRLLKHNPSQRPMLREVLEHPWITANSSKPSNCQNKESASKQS
Protocol: (§1) The kinase assay of Aurora A and B was measured using HTRF-kinEASE-STK discovery kit purchased from Cisbio.

Aurora kinase B = Aurora kinase B (Homo sapiens, UniProt Q96GD4); assay: Aurora Kinase Assay
Chain of Aurora kinase B (Q96GD4 whole entry): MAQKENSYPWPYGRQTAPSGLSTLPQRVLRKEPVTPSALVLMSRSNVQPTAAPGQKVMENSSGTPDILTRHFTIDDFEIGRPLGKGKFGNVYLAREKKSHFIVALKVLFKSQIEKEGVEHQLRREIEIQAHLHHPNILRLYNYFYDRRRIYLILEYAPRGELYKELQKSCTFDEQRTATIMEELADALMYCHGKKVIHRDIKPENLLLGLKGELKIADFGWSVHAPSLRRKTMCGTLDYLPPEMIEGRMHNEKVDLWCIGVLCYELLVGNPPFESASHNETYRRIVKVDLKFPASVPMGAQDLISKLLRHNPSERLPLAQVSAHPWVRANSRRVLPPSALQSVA
Protocol: as §1

Row | SMILES | IC50 (Aurora kinase A) [nM] | IC50 (Aurora kinase B) [nM]
1 | CCOC(=O)c1csc2cc(Nc3ncnc4cc(OCCCN5CCCCC5)ccc34)ccc12 [4-Aminoquinazoline derivative, 6g] | 822 | –
2 | CCOC(=O)c1csc2cc(Nc3ncnc4cc(OCCCN5CCN(C)CC5)ccc34)ccc12 [4-Aminoquinazoline derivative, 6f] | 111 | 136
3 | Cc1ccc(Nc2ncnc3cc(OCCCN4CCCCC4)ccc23)cc1Nc1ncc(-c2cccnc2)cn1 [4-Aminoquinazoline derivative, 6b] | 323 | 489
4 | Cc1ccc(Nc2ncnc3cc(OCCCN4CCOCC4)ccc23)cc1Nc1ncc(-c2cccnc2)cn1 [4-Aminoquinazoline derivative, 6a] | 179 | 191

More lines, in order of falling IC50 (Aurora kinase A), values ahead:

Row | IC50 (Aurora kinase A) [nM] | IC50 (Aurora kinase B) [nM] | SMILES
5 | 788 | 893 | CCOC(=O)c1csc2cc(Nc3ncnc4cc(OCCCN(CC)CC)ccc34)ccc12 [4-Aminoquinazoline derivative, 6i]
6 | 98 | 202 | CCN(CC)CCCOc1ccc2c(Nc3ccc(C)c(Nc4ncc(-c5cccnc5)cn4)c3)ncnc2c1 [4-Aminoquinazoline derivative, 6c]
7 | 77 | 145 | Cc1ccc(Nc2ncnc3cc(OCCCN4CCCC4)ccc23)cc1Nc1ncc(-c2cccnc2)cn1 [4-Aminoquinazoline derivative, 6d]
8 | 62 | 146 | CCOC(=O)c1csc2cc(Nc3ncnc4cc(OCCCN5CCCC5)ccc34)ccc12 [4-Aminoquinazoline derivative, 6h]

From BindingDB's records for doi:10.1111/cbdd.12089 (Southeast University, 2013)
